Reference: ChEMBL document CHEMBL5291721, “A preclinical secondary pharmacology resource illuminates target-adverse drug reaction associations of marketed drugs” (Nat Commun, 2023)

Key:
Adenosine receptor A2a = Adenosine receptor A2a (Homo sapiens, UniProt P29274)
[1] = target: T1, Alpha-1A adrenergic receptor (Homo sapiens, UniProt P35348); assay type: functional, cell-based
T1 sequence (P35348 whole entry): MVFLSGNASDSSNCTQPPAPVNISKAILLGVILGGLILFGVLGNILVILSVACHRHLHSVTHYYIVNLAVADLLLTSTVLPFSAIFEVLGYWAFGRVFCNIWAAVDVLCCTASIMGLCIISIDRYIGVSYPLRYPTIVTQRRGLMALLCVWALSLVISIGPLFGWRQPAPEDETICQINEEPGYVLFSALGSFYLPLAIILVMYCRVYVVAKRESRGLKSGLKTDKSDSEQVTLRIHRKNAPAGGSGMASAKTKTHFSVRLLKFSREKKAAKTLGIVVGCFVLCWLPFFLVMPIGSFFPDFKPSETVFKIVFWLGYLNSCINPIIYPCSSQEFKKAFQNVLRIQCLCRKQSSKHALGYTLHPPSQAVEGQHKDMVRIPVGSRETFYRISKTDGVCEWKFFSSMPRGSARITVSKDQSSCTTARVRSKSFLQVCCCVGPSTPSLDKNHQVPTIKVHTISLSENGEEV

[2] = target: T2, Beta-2 adrenergic receptor (Homo sapiens, UniProt P07550); assay type: functional, cell-based
T2 sequence (P07550 whole entry): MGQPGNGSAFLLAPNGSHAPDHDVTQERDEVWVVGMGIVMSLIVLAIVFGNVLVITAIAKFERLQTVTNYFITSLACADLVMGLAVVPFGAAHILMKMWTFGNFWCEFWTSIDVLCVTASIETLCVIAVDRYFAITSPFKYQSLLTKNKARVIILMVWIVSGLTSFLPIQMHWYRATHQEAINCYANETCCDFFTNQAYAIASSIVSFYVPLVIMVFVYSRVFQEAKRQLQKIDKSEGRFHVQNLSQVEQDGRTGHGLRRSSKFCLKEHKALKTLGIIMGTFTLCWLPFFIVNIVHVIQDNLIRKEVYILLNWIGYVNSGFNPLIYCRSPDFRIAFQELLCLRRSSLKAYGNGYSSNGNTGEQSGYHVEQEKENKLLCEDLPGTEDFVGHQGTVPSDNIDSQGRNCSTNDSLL

[3] = target: T3, Muscarinic acetylcholine receptor M1 (Homo sapiens, UniProt P11229); assay type: functional
T3 sequence (P11229 whole entry): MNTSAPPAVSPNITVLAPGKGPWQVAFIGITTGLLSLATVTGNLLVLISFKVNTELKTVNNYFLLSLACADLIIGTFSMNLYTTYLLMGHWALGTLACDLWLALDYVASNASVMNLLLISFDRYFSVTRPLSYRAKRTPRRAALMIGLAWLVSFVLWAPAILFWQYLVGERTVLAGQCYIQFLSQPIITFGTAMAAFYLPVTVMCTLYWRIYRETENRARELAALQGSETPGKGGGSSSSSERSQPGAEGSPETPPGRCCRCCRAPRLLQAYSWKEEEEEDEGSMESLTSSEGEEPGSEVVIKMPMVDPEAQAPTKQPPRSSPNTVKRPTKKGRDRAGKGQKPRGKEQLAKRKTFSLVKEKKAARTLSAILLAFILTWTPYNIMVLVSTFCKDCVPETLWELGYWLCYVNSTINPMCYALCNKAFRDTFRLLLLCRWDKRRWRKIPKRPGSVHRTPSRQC

[4] = target: T4, Muscarinic acetylcholine receptor M2 (Homo sapiens, UniProt P08172); assay type: functional, cell-based
T4 sequence (P08172 whole entry): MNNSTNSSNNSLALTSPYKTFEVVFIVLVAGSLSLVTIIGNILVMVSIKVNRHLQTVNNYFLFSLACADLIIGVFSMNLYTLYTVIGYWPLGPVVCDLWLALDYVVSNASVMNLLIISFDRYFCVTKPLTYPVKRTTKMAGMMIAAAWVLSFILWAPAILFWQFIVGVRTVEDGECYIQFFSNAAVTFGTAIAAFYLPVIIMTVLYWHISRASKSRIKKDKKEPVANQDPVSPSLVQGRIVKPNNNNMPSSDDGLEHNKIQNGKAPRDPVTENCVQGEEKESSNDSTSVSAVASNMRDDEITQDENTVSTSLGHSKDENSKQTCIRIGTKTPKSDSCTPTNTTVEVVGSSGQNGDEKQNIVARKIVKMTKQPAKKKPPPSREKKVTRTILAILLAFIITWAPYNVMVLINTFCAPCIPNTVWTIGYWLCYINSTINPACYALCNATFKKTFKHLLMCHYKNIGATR

[5] = target: Neuronal acetylcholine receptor subunit alpha-4 (Homo sapiens, UniProt P43681)
Sequence of Neuronal acetylcholine receptor subunit alpha-4 (P43681 whole entry): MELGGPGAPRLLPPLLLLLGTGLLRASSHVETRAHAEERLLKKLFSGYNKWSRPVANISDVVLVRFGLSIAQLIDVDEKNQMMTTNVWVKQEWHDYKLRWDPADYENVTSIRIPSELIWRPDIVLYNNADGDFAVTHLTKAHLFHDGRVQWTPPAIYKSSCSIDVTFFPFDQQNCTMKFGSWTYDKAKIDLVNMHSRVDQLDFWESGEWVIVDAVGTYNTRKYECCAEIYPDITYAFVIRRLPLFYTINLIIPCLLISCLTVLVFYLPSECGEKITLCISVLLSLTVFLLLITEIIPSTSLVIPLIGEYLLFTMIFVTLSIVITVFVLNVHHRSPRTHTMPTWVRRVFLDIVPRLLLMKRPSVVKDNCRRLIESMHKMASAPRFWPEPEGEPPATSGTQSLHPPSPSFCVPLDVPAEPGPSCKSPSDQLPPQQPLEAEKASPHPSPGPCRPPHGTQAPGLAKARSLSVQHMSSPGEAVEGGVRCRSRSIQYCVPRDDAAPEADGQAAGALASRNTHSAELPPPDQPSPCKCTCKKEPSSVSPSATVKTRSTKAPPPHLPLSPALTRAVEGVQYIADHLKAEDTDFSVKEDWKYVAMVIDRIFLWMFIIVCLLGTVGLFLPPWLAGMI

[6] = target: T5, Gamma-aminobutyric acid receptor subunit alpha-1 (Rattus norvegicus, UniProt P62813); assay type: functional
T5 sequence (P62813 whole entry): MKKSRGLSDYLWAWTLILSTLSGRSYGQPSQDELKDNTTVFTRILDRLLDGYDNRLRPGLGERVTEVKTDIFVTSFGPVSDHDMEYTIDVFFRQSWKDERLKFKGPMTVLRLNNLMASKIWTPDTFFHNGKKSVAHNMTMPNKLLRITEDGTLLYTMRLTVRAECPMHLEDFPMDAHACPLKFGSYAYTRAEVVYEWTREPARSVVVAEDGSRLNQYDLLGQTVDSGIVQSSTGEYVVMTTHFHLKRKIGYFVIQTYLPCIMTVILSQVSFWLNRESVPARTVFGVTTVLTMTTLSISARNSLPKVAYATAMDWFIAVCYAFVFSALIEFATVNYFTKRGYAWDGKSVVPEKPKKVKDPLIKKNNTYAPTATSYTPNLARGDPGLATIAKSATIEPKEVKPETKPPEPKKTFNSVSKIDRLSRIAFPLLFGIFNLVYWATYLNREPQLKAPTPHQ

Histamine H1 receptor = Histamine H1 receptor (Homo sapiens, UniProt P35367)
Sequence of Histamine H1 receptor (P35367 whole entry): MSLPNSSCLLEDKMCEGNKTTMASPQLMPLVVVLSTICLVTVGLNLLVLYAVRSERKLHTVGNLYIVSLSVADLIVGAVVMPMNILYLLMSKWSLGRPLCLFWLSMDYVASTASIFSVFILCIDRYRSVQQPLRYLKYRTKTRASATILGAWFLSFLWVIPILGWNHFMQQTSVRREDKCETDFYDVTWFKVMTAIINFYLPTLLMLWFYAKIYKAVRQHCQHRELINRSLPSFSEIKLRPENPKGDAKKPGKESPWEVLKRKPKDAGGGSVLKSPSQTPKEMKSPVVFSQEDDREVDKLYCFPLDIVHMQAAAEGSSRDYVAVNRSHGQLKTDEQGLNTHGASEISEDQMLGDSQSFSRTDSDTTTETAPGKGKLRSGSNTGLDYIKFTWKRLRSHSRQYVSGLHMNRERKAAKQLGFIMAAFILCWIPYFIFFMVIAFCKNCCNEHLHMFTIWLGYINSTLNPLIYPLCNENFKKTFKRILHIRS

[7] = target: T6, 5-hydroxytryptamine receptor 2C (Homo sapiens, UniProt P28335)
T6 sequence (P28335 whole entry): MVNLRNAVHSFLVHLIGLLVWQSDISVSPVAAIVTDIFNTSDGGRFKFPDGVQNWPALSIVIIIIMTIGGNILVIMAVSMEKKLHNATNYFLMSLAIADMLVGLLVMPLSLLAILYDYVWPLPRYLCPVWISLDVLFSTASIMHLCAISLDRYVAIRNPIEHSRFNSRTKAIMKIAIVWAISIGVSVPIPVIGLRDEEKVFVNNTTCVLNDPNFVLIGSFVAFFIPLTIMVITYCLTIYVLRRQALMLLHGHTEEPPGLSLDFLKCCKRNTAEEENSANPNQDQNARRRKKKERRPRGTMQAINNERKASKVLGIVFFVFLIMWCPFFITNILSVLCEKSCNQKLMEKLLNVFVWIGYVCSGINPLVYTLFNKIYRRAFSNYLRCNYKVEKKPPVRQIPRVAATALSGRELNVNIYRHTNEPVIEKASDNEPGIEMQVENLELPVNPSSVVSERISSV

[8] = target: T7, Neuropeptide Y receptor type 1 (Homo sapiens, UniProt P25929)
T7 sequence (P25929 whole entry): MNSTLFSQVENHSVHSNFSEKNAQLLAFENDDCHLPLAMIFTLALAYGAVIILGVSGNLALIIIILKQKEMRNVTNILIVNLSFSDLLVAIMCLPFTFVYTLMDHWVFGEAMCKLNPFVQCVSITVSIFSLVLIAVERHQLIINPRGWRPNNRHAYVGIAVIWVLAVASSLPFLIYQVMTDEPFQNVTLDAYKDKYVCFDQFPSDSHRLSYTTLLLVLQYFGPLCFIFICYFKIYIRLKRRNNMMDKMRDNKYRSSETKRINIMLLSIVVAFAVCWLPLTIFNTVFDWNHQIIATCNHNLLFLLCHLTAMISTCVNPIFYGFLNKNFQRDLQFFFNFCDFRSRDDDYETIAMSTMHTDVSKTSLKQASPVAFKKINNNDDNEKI

[9] = target: Kappa-type opioid receptor (Homo sapiens, UniProt P41145)
Sequence of Kappa-type opioid receptor (P41145 whole entry): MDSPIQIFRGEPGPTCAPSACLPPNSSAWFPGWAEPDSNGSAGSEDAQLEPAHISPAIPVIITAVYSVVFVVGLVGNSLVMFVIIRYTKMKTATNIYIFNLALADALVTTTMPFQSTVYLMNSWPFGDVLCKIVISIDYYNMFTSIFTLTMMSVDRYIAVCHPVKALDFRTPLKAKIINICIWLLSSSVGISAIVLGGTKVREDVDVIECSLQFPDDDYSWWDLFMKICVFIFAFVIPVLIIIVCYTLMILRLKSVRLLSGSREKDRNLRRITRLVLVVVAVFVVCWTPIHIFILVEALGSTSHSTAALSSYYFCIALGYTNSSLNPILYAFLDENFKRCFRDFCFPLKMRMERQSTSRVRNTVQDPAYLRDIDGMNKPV

[10] = target: T1, Alpha-1A adrenergic receptor; assay type: functional, cell-based; remark: listed apart in the source
[11] = target: T2, Beta-2 adrenergic receptor
[12] = target: T5, Gamma-aminobutyric acid receptor subunit alpha-1
Also: assay procedure not described here.

Sequence of Adenosine receptor A2a (P29274 whole entry): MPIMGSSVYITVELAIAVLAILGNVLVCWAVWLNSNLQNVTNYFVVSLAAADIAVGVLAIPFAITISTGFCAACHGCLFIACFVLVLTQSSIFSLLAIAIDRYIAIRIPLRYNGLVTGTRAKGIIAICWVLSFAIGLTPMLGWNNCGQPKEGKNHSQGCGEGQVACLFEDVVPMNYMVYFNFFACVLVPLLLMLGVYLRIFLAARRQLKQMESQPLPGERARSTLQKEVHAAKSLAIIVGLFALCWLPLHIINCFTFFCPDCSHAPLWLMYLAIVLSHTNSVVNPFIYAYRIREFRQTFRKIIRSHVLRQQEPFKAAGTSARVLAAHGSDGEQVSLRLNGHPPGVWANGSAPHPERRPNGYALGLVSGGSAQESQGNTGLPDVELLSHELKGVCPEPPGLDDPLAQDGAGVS

| SMILES | AC50 (Adenosine receptor A2a) [µM] | AC50 [1] [µM] | AC50 [2] [µM] | AC50 [3] [µM] | AC50 [4] [µM] | AC50 [5] [µM] | AC50 [6] [µM] | AC50 (Histamine H1 receptor) [µM] | AC50 [7] [µM] | AC50 [8] [µM] | AC50 [9] [µM] | AC50 [10] [µM] | AC50 [11] [µM] | AC50 [12] [µM] |
| --- | --- | --- | --- | --- | --- | --- | --- | --- | --- | --- | --- | --- | --- | --- |
| CC[C@@H](C(N)=O)N1CCCC1=O | > 30 | > 30 | > 30 | > 30 | > 30 | > 30 | > 30 | > 10 | > 30 | > 30 | > 30 | > 30 | – | – |
| COc1ccc(C(=O)Nc2ccccc2CCC2CCCCN2C)cc1 (stereo unspecified) [ENCAINIDE] | > 30 | > 30 | > 30 | > 10 | > 10 | > 10 | > 10 | > 10 | 0.81 | > 30 | 3.6 | > 30 | > 10 | > 10 |
| CCOc1ccccc1OCC1CNCCO1 (stereo unspecified) [VILOXAZINE] | > 30 | > 30 | > 30 | > 10 | > 10 | > 10 | > 10 | > 10 | – | > 30 | > 10 | > 30 | 7.6 | > 10 |
| CN(C)CCC=C1c2ccccc2C=Cc2ccccc21 [CYCLOBENZAPRINE] | > 30 | > 30 | > 30 | 0.18 | – | > 10 | > 10 | 0.021 | 0.88 | > 30 | – | 0.47 | > 10 | > 10 |
